# Results from patent US12421212B2, “Substituted benzenecarboxamides as IL-17A modulators” (DiCE Alpha, Inc., priority 2019, dated 2025).
# Biological target: T1, IL-17A/A (Homo sapiens, UniProt Q16552)
# T1 construct: purchased Genscript Z03228
# T1 sequence (Q16552 24-155): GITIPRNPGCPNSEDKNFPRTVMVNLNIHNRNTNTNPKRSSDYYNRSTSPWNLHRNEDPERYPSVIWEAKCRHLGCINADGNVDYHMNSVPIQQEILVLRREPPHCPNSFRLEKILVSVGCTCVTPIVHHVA
# Assay: IL-17A/A HEK-Blue Cell Assay
# Assay type: cell-based
# Conditions: HEK-Blue IL-17A reporter cell line, SEAP readout at A630, 20 hours incubation with IL-17A/A, top concentration 10 uM, 1 uM or 0.3 uM; for IC50: read-out: IL-17A/A inhibition (pIC50) (converted)
# Method: The HEK-Blue IL-17A reporter cell line (Fisher #NC1408637) was used for cell-based IL-17A/A inhibition assays. Cells were grown and prepared for assays according to the manufacturer's instructions. This cell line consists of HEK 293 cells that were designed to expressed IL-17RA, IL-17RC, and the ActI adapter molecule, the combination of which, when stimulated by IL-17A/A activates a NFκB promoter and drives expression of a recombinant Secreted Alkaline Phosphatase (SEAP) geneprotein. Media from the cells is then added to a development reagent (Quanti-Blue Substrate, Fisher #NC9711613), and read at A630.
# Compounds were titrated in DMSO, with a top final compound concentration of 10 uM, 1 uM, or 0.3 uM, and added to the cells immediately before adding IL-17A/A (Genscript #Z03228). The cells, compound, and IL-17A/A were then incubated for 20 hours before media was removed for SEAP analysis. The resulting inhibition curve was then analyzed using Graphpad Prism 7.0, and IC50 values were determined using a 4-parameter nonlinear fit. DMSO was added to a universal final concentration of 0.1% to optimize background.
Structure (SMILES),IC50,IL-17A/A inhibition (pIC50)
"CCC(=O)N[C@@H](C(=O)N1CCN(C)CC1)[C@@H](C)c1ccc(NC(=O)C(NC(=O)c2ccnn2CC)C(C)C2CCC(F)(F)CC2)c(F)c1 (single isomer, unassigned) [Compound 606]",10 to 100 nM,–
"CCC(=O)N[C@@H](C(=O)N1CCN(C)CC1)[C@@H](C)c1ccc(NC(=O)C(NC(=O)c2ccnn2CC)C(OC)c2ccc(F)cc2)c(F)c1 (single isomer, unassigned) [Compound 608]",–,X3b (compounds were evaluated up to 0.3 uM and inhibited activity at 0.3 uM by less than 20%)
"CCC(=O)N[C@@H](C(=O)N1CCN(C)CC1)[C@@H](C)c1ccc(NC(=O)C(NC(=O)c2nonc2CC)C(OC)c2ccc(F)cc2)c(F)c1 (single isomer, unassigned) [Compound 609]",–,X2b (compounds were evaluated up to 1 uM and inhibited activity at 1 uM by less than 20%)
"CCC(=O)N[C@@H](C(=O)N1CCN(C)CC1)[C@@H](C)c1ccc(NC(=O)C(NC(=O)c2nonc2CC)C(C)C2CCC(C)CC2)c(F)c1 (single isomer, unassigned) [Compound 613]",–,X2b (compounds were evaluated up to 1 uM and inhibited activity at 1 uM by less than 20%)
"CCC(=O)N[C@@H](C(=O)N1CCN(C)CC1)C(OC)c1ccc(NC(=O)[C@@H](NC(=O)c2ccnn2CC)[C@H]2CC[C@H](C)CC2)c(F)c1 (single isomer, unassigned) [Compound 614]",100 to 10000 nM,–
"CCC(=O)NC(C(=O)NCC1CCC1)C(C)c1ccc(NC(=O)[C@@H](NC(=O)c2ccnn2CC)[C@H]2CC[C@H](C)CC2)c(F)c1 (single isomer, unassigned) [Compound 662]",–,"X3a (compounds were evaluated up to 0.3 uM and did not inhibit activity by >80%, however they showed some activity at 0.3 uM (less than 80% and more than 20%))"
"CCC(=O)NC(C(=O)N1CCN(Cc2ccccc2)CC1)C(C)c1ccc(NC(=O)[C@@H](NC(=O)c2ccnn2CC)[C@H]2CC[C@H](C)CC2)c(F)c1 (single isomer, unassigned) [Compound 663]",–,X3b (compounds were evaluated up to 0.3 uM and inhibited activity at 0.3 uM by less than 20%)
"CCC(=O)N[C@@H](C(=O)N1CCN(C)CC1)[C@@H](C)c1ccc(NC(=O)C(NC(=O)c2ccnn2CC)C2CCc3ccccc32)c(F)c1 (single isomer, unassigned) [Compound 753]",–,X2b (compounds were evaluated up to 1 uM and inhibited activity at 1 uM by less than 20%)
"CCC(=O)N[C@@H](C(=O)N1CCN(C)CC1)[C@@H](C)c1ccc(NC(=O)C(NC(=O)c2ccnn2CC)C2CCc3cc(F)cc(F)c32)c(F)c1 (single isomer, unassigned) [Compound 809]",< 10 nM,–
CCC(=O)N[C@H](Cc1ccc(NC(=O)[C@@H](NC(=O)C(F)(F)c2ccc(OC)nc2)C2CCCCC2)c(F)c1)C(=O)N1CCN(C)CC1 [Compound 203],100 to 10000 nM,–
CCC(=O)N[C@H](Cc1ccc(NC(=O)[C@@H](NC(=O)C(F)(F)c2cccnc2)C2CCCCC2)c(F)c1)C(=O)N1CCN(C)CC1 [Compound 205],100 to 10000 nM,–
CCC(=O)N[C@H](Cc1ccc(NC(=O)[C@@H](NC(=O)C(F)(F)c2cccc(OC)c2)C2CCCCC2)c(F)c1)C(=O)N1CCN(C)CC1 [Compound 207],100 to 10000 nM,–
CCC(=O)N[C@H](Cc1ccc(NC(=O)[C@@H](NC(=O)C(F)(F)c2ccc(C)cc2)C2CCCCC2)c(F)c1)C(=O)N1CCN(C)CC1 [Compound 210],100 to 10000 nM,–
CCC(=O)N[C@H](Cc1ccc(NC(=O)[C@@H](NC(=O)C(F)(F)c2ccc(Cl)cc2)C2CCCCC2)c(F)c1)C(=O)N1CCN(C)CC1 [Compound 211],100 to 10000 nM,–
CCC(=O)N[C@H](Cc1ccc(NC(=O)[C@@H](NC(=O)C(F)(F)c2cncs2)C2CCCCC2)c(F)c1)C(=O)N1CCN(C)CC1 [Compound 213],100 to 10000 nM,–
CCC(=O)N[C@H](Cc1ccc(NC(=O)[C@@H](NC(=O)C(F)(F)c2ccc(=O)[nH]c2)C2CCCCC2)c(F)c1)C(=O)N1CCN(C)CC1 [Compound 217],100 to 10000 nM,–
CCC(=O)N[C@@H](C(=O)N1CCN(C)CC1)[C@@H](C)c1ccc(NC(=O)[C@@H](NC(=O)C(F)(F)c2ccc(OC)nc2)C2CCCCCC2)c(F)c1 [Compound 219],10 to 100 nM,–
CCC(=O)N[C@@H](C(=O)N1CCN(C)CC1)[C@@H](C)c1ccc(NC(=O)[C@@H](NC(=O)C(F)(F)c2ccc(OC)nc2)C2CCCCC2)cc1 [Compound 221],10 to 100 nM,–
COc1ccc(C(F)(F)C(=O)N[C@H](C(=O)Nc2ccc([C@H](C)[C@@H](NC(=O)c3cnns3)C(=O)N3CCN(C)CC3)cc2F)C2CCCCC2)cn1 [Compound 224],< 10 nM,–
CCC(=O)N[C@@H](C(=O)N1CCN(C)CC1)[C@@H](CC)c1ccc(NC(=O)[C@@H](NC(=O)C(F)(F)c2ccc(OC)nc2)C2CCCCCC2)cc1 [Compound 227],10 to 100 nM,–

# The next lines start with results.
IC50,Structure (SMILES),IL-17A/A inhibition (pIC50)
< 10 nM,"[2H]C([2H])([2H])C1CCC(C(NC(=O)c2nonc2CC)C(=O)Nc2ccc([C@H](C)[C@@H](NC(=O)N(C)C3CC3)C(=O)N3CCN(C)[C@H](C)C3)cc2F)CC1 (single isomer, unassigned) [Compound 615]",–
100 to 10000 nM,CCC(=O)N[C@H](Cc1ccc(NC(=O)[C@@H](NC(=O)C(F)(F)c2ccccc2)C2CCCCC2)c(F)c1)C(=O)N1CCN(C)CC1 [Compound 204],–
100 to 10000 nM,CCC(=O)N[C@H](Cc1ccc(NC(=O)[C@@H](NC(=O)C(F)(F)c2ccc(OC)cc2)C2CCCCC2)c(F)c1)C(=O)N1CCN(C)CC1 [Compound 206],–
100 to 10000 nM,CCC(=O)N[C@H](Cc1ccc(NC(=O)[C@@H](NC(=O)C(F)(F)c2ccc(C)nc2)C2CCCCC2)c(F)c1)C(=O)N1CCN(C)CC1 [Compound 208],–
10 to 100 nM,CCC(=O)N[C@H](Cc1ccc(NC(=O)[C@@H](NC(=O)C(F)(F)c2ccc(OC)nc2)C2CCCCCC2)c(F)c1)C(=O)N1CCN(C)CC1 [Compound 214],–
100 to 10000 nM,CCC(=O)N[C@H](Cc1ccc(NC(=O)[C@@H](NC(=O)C(F)(F)c2ccc(OC)nc2)C2CCC(F)(F)CC2)c(F)c1)C(=O)N1CCN(C)CC1 [Compound 215],–
100 to 10000 nM,CCC(=O)N[C@H](Cc1ccc(NC(=O)[C@@H](NC(=O)C(F)(F)c2ccc(OC)nc2)[C@H]2CC[C@H](C)CC2)c(F)c1)C(=O)N1CCN(C)CC1 [Compound 216],–
10 to 100 nM,CCC(=O)N[C@@H](C(=O)N1CCN(C)CC1)[C@@H](C)c1ccc(NC(=O)[C@@H](NC(=O)C(F)(F)c2ccc(OC)nc2)C2CCCCC2)c(F)c1 [Compound 218],–
10 to 100 nM,CCC(=O)N[C@@H](C(=O)N1CCN(C)CC1)[C@@H](C)c1ccc(NC(=O)[C@@H](NC(=O)C(F)(F)c2ccc(OC)nc2)C2CCC(F)(F)CC2)c(F)c1 [Compound 220],–
10 to 100 nM,CCC(=O)N[C@@H](C(=O)N1CCN(C)CC1)[C@@H](C)c1ccc(NC(=O)[C@@H](NC(=O)C(F)(F)c2ccc(OC)nc2)C2CCCCCC2)cc1 [Compound 222],–
< 10 nM,CCC(=O)N[C@@H](C(=O)N1CCN(C)CC1)[C@@H](C)c1ccc(NC(=O)[C@@H](NC(=O)c2ccnn2CC)C2CCCCCC2)c(F)c1 [Compound 228],–
10 to 100 nM,CCC(=O)N[C@@H](C(=O)N1CCN(C)CC1)[C@@H](C)c1ccc(NC(=O)[C@@H](NC(=O)c2ccnn2CC)C2CCCCC2)c(F)c1 [Compound 229],–
< 10 nM,CCC(=O)N[C@@H](C(=O)N1CCN(C)CC1)[C@@H](C)c1ccc(NC(=O)[C@@H](NC(=O)C(F)(F)c2cccc(C#N)c2)C2CCCCC2)c(F)c1 [Compound 230],–
